Measured values taken from article PMC8199339, “Propellanes as Rigid Scaffolds for the Stereodefined Attachment of σ-Pharmacophoric Structural Elements to Achieve σ Affinity” (International Journal of Molecular Sciences, 2021).
pKi: −log10 of the molar value. Like-named read-outs stand apart in the source and are kept apart here.

Experiments:
[1] = target: T1, σ1 receptor (Cavia porcellus, UniProt Q60492); experiment: σ1 receptor binding assay, radioligand [3H]-(+)-pentazocine, guinea pig brain membrane preparation; details: for inhibition at 1 µM / inhibition of the radioligand binding, σ1: test compound concentration of 1 µM; for Ki: [3H]-(+)-pentazocine, guinea pig brain, mean of three experiments (± SEM), values without SEM mean of two, read-out: Ki (nM) σ1; for pKi: approximate statement in text, read-out: σ1 affinity, Ki (in the range of)
T1 construct: thawed membrane preparation of guinea pig brain; tissue Harlan-Winkelmann, Borchen, Germany (animal organs); host or cells: guinea pig brain membrane homogenate
T1 sequence (Q60492 whole entry): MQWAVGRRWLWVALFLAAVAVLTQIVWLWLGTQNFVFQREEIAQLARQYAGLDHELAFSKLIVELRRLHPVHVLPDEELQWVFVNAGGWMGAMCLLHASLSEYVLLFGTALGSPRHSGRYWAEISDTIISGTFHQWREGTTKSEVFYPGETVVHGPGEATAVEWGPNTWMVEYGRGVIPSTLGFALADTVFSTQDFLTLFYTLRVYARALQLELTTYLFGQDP

[2] = target: T2, σ2 receptor (Rattus norvegicus, UniProt Q5U3Y7); experiment: σ2 receptor binding assay, radioligand [3H]di-o-tolylguanidine, rat liver membrane preparation; details: for inhibition at 1 µM / inhibition of the radioligand binding, σ2: test compound concentration of 1 µM; for Ki: read-out: Ki (nM) σ2
T2 construct: The thawed rat liver membrane preparation; tissue Harlan-Winkelmann, Borchen, Germany (animal organs); host or cells: rat liver membrane homogenate
T2 sequence (Q5U3Y7 1-176): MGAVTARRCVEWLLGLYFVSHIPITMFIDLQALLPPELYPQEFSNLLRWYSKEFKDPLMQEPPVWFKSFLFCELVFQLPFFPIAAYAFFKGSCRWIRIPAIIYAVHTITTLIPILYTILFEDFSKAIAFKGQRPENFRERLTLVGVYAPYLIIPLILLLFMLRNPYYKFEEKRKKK

| Compound | inhibition at 1 µM [1] [%] | inhibition at 1 µM [2] [%] | Ki [1] [nM] | further results |
| --- | --- | --- | --- | --- |
| NC1CC23CCCCC2(CCC3)C1 (centres unmarked) [compound 16] | 5 | 13 |  |  |
| c1ccc(CNC2CC34CCCCC3(C2)CC2(C4)OCCO2)cc1 (stereo not drawn) [syn-14] |  |  | 750 | inhibition of the radioligand binding, σ2 ([2]; listed as syn- 14, 1 µM): 7% |
| O=C1CC23CCCCC2(C1)CC(NC(=O)Nc1ccc(F)c(F)c1)C3 (stereo not drawn) [anti-25, 1-(3,4-Difluorophenyl)-3-(8-anti-11-oxo[4.3.3]propellan-8-yl)urea] |  |  |  | inhibition of the radioligand binding, σ1 ([1]; 1 µM): 0%; inhibition of the radioligand binding, σ2 [2]: 0% |
| O=C(Nc1ccc(F)c(F)c1)NC1CC23CCCCC2(CC(O)C3)C1 (stereo not drawn) [anti,anti-26, 1-(3,4-Difluorophenyl)-3-(8-anti-11-anti-11-hydroxy[4.3.3]propellan-8-yl)urea] | 0 | 0 |  |  |
| COc1ccc(C)cc1NC(=O)OC1CC23CCCCC2(CC(NCc2ccc(N(C)C)cc2)C3)C1 (stereo not drawn) [8-anti-4h, [(8-anti-11-anti and 8-anti-11-syn)-11-[(4-Dimethylamino)benzylamino]-[4.3.3]propellan-8-yl] N-(2-methoxy-5-methylphenyl)carbamate] | 0 | 0 |  |  |
| COc1ccc(C)cc1NC(=O)OC1CC23CCCCC2(CC(Nc2ccc(N)cc2)C3)C1 (stereo not drawn) [8-anti-4o, [(8-anti-11-anti and 8-anti-11-syn)-11-(4-Aminophenylamino)[4.3.3]propellan-8-yl] N-(2-methoxy-5-methylphenyl)carbamate] | 16 |  |  | Ki [2]: 12000 nM |
| COc1ccc(C)cc1NC(=O)OC1CC23CCCCC2(CC(NCC(C)C)C3)C1 (stereo not drawn) [8-anti-4u, [(8-anti-11-anti and 8-anti-11-syn)-11-(Isobutylamino)[4.3.3]propellan-8-yl] N-(2-methoxy-5-methylphenyl)carbamate] | 5 |  |  | Ki [2]: 854 nM |
| COc1ccc(C)cc1NC(=O)OC1CC23CCCCC2(CC(Nc2ccccc2)C3)C1 (stereo not drawn) [8-anti-4l, [(8-anti-11-anti and 8-anti-11-syn)-11-(Phenylamino)[4.3.3]propellan-8-yl] N-(2-methoxy-5-methylphenyl)carbamate] | 13 | 0 |  |  |
| COc1ccc(C)cc1NC(=O)OC1CC23CCCCC2(CC(NCc2ccc(Cl)c(Cl)c2)C3)C1 (stereo not drawn) [8-anti-4d, [(8-anti-11-anti and 8-anti-11-syn)-11-(3,4-Dichlorobenzylamino)[4.3.3]propellan-8-yl] N-(2-methoxy-5-methylphenyl)carbamate] | 0 | 4 |  |  |
| COc1ccc(C)cc1NC(=O)OC1CC23CCCCC2(CC(NCc2ccco2)C3)C1 (mixture of isomers) [8-anti-4i, [(8-anti-11-anti and 8-anti-11-syn)-11-[(Furan-2-yl-mehtyl)amino][4.3.3]propellan-8-yl] N-(2-methoxy-5-methylphenyl)carbamate] |  |  | 924 | pKi [1]: ~6.00; Ki [2]: > 6000 nM |
| COc1ccc(C)cc1NC(=O)OC1CC23CCCCC2(CC(NCCc2ccccc2)C3)C1 (stereo not drawn) [8-anti-4p, [(8-anti-11-anti and 8-anti-11-syn)-11-(Phenethylamino)[4.3.3]propellan-8-yl] N-(2-methoxy-5-methylphenyl)carbamate] |  | 0 | 668 |  |
| COc1ccc(C)cc1NC(=O)OC1CC23CCCCC2(CC(NCc2ccc(C)cc2C)C3)C1 (stereo not drawn) [8-anti-4e, [(8-anti-11-anti and 8-anti-11-syn)-11-(2,4-Dimethylbenzylamino)[4.3.3]propellan-8-yl] N-(2-methoxy-5-methylphenyl)carbamate] | 0 |  |  | Ki [2]: 1100 nM |
| COc1ccc(C)cc1NC(=O)OC1CC23CCCCC2(CC(NCc2ccc(Cl)cc2)C3)C1 (stereo not drawn) [8-anti-4c, [(8-anti-11-anti and 8-anti-11-syn)-11-(4-Chlorobenzylamino)[4.3.3]propellan-8-yl] N-(2-methoxy-5-methylphenyl)carbamate] | 6 | 12 |  |  |
| COc1ccc(C)cc1NC(=O)N(Cc1ccccc1)C1CC23CCCCC2(CC(O)C3)C1 (stereo not drawn) [syn,syn-22, 1-benzyl-1-{(8-syn,11-syn)-11-hydroxy[4.3.3]propellan-8-yl}-3-(2-methoxy-5-methylphenyl)urea] |  |  |  | inhibition of the radioligand binding, σ1 [1]: 0%; inhibition of the radioligand binding, σ2 ([2]; 1 µM): 0% |
| COc1ccc(C)cc1NC(=O)OC1CC23CCCCC2(CC(NCCCc2ccccc2)C3)C1 (stereo not drawn) [8-anti-4q, [(8-anti-11-anti and 8-anti-11-syn)-11-(3-Phenylpropylamino)[4.3.3]propellan-8-yl] N-(2-methoxy-5-methylphenyl)carbamate] | 22 | 0 |  |  |
| COc1ccc(NC2CC34CCCCC3(C2)CC(OC(=O)Nc2cc(C)ccc2OC)C4)cc1Cl (stereo not drawn) [8-anti-4n, [(8-anti-11-anti and 8-anti-11-syn)-11-(3-Chloro-4-methoxyphenylamino)-[4.3.3]propellan-8-yl] N-(2-methoxy-5-methylphenyl)carbamate] | 0 | 0 |  |  |
| COc1ccc(C)cc1NC(=O)N(Cc1ccccc1)C1CC23CCCCC2(CC(O)C3)C1 (stereo not drawn) [anti,anti-22, 1 -Benzyl-1-{(8-anti,11-anti)-11-hydroxy[4.3.3]propellan-8-yl}-3-(2-methoxy-5-methylphenyl)urea] |  |  |  | inhibition of the radioligand binding, σ1 [1]: 0%; inhibition of the radioligand binding, σ2 ([2]; 1 µM): 0% |
| c1ccc(CNC2CC34CCCCC3(CCC4)C2)cc1 (centres unmarked) [compound 8] |  | 39 | 594 | reduction of σ1 affinity compared to azapropellane 9a ([1]; compared to 9a): 35 fold; selectivity for the σ1 receptor over the σ2 receptor ([1]; σ1 over σ2): at least 10 fold |
| O=C1CC23CCCCC2(C1)CC(NC(=O)Nc1ccc(F)c(F)c1)C3 (stereo not drawn) [syn-25, 1-(3,4-. Difluorophenyl)-3-(8-syn-11-oxo[4.3.3]propellan-8-yl)urea] |  | 0 |  | inhibition of the radioligand binding, σ1 ([1]; 1 µM): 10% |
| COc1ccc(C)cc1NC(=O)OC1CC23CCCCC2(CC(NCc2ccc([N+](=O)[O-])cc2)C3)C1 (stereo not drawn) [8-anti-4g, [(8-anti-11-anti and 8-anti-11-syn)-11-(4-Nitrobenzylamino)[4.3.3]propellan-8-yl] N-(2-methoxy-5-methylphenyl)carbamate] | 24 |  |  | Ki [2]: 1950 nM |
| COc1ccc(C)cc1NC(=O)OC1CC23CCCCC2(CC(NCc2ccco2)C3)C1 (mixture of isomers) [8-syn-4i, [(8-syn-11-syn and 8-syn-11-anti)-11-[(Furan-2-yl-mehtyl)amino][4.3.3]propellan-8-yl] N-(2-methoxy-5-methylphenyl)carbamate] |  | 0 | 276 |  |
| COc1ccc(C)cc1NC(=O)OC1CC23CCCCC2(CC(NCCc2c[nH]c4ccccc24)C3)C1 (stereo not drawn) [8-anti-4k, [(8-anti-11-anti and 8-anti-11-syn)-11-[2-(Indol-3-yl)ethylamino][4.3.3]propellan-8-yl] N-(2-methoxy-5-methylphenyl)carbamate] |  | 0 | 1200 | pKi [1]: ~6.00 |
| COc1ccc(C)cc1NC(=O)OC1CC23CCCCC2(CC(NCCCCCO)C3)C1 (stereo not drawn) [8-anti-4t, [(8-anti-11-anti and 8-anti-11-syn)-11-(5-Hydroxypentylamino)[4.3.3]propellan-8-yl] N-(2-methoxy-5-methylphenyl)carbamate] |  | 2 | 454 |  |
